These results are taken from PubChem BioAssay AID248 (DTP/NCI, 2004).

This experiment deals with L1210 leukemia ip in BDF1 mice, survival T/C. In words: NCI In Vivo Anticancer Drug Screen. Data for tumor model L1210 Leukemia (intraperitoneal) in B6D2F1 (BDF1) mice. Conditions: endpoint: mean survival time, higher = longer survival. The gist of the method:
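Tumor cells were implanted, animals were treated, and survival was followed. The result divides the treated measurement by the vehicle-control measurement.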

Setting [1] is: dose: 100.0 mg/kg/injection, schedule: Q01DX009 (ip), vehicle: Klucel (hydroxypropylcellulose) (HPC).
Where [2] appears, read: dose: 200.0 mg/kg/injection, schedule: Q01DX009 (ip), vehicle: Klucel (hydroxypropylcellulose) (HPC).
The mark [3] stands for this setting: dose: 400.0 mg/kg/injection, schedule: Q01DX009 (ip), vehicle: Klucel (hydroxypropylcellulose) (HPC).
[4] abbreviates: dose: 100.0 mg/kg/injection, schedule: Q04DX002 (ip), vehicle: Klucel (hydroxypropylcellulose) (HPC).
Setting [5] is: dose: 100.0 mg/kg/injection, schedule: Q04DX003 (ip), vehicle: Klucel (hydroxypropylcellulose) (HPC).
Where [6] appears, read: dose: 100.0 mg/kg/injection, schedule: Q04DX003 (ip), vehicle: saline with Tween-80.
The mark [7] stands for this setting: dose: 200.0 mg/kg/injection, schedule: Q04DX003 (ip), vehicle: Klucel (hydroxypropylcellulose) (HPC).
[8] abbreviates: dose: 200.0 mg/kg/injection, schedule: Q04DX003 (ip), vehicle: saline with Tween-80.
Setting [9] is: dose: 400.0 mg/kg/injection, schedule: Q04DX003 (ip), vehicle: Klucel (hydroxypropylcellulose) (HPC).
[10] abbreviates: dose: 400.0 mg/kg/injection, schedule: Q04DX003 (ip), vehicle: saline with Tween-80.
Setting [11] is: dose: 200.0 mg/kg/injection, schedule: Q04DX002 (ip), vehicle: Klucel (hydroxypropylcellulose) (HPC).
Where [12] appears, read: dose: 400.0 mg/kg/injection, schedule: Q04DX002 (ip), vehicle: Klucel (hydroxypropylcellulose) (HPC).

Each structure is given as a SMILES string. Where “and” joins values, the source holds several entries; their conditions need not be identical. Equal entries are not always repeated. Toxic doses and inconclusive results are not listed.

For `Cc1ccc(NCC(O)CN2CCOCC2)cc1` (stereo unspecified), the T/C runs as follows: (dose: 3.0 mg/kg/injection, schedule: Q04DX003 (ip), vehicle: Klucel (hydroxypropylcellulose) (HPC)) 107 % of control; (dose: 6.0 mg/kg/injection, schedule: Q01DX009 (ip), vehicle: Klucel (hydroxypropylcellulose) (HPC)) 101 % of control; (dose: 6.0 mg/kg/injection, schedule: Q04DX003 (ip), vehicle: Klucel (hydroxypropylcellulose) (HPC)) 100 % of control; (dose: 12.0 mg/kg/injection, schedule: Q01DX009 (ip), vehicle: Klucel (hydroxypropylcellulose) (HPC)) 93 % of control; (dose: 12.0 mg/kg/injection, schedule: Q04DX003 (ip), vehicle: Klucel (hydroxypropylcellulose) (HPC)) 103 % of control; (dose: 24.0 mg/kg/injection, schedule: Q01DX009 (ip), vehicle: Klucel (hydroxypropylcellulose) (HPC)) 106 % of control. Moreover, the T/C (dose: 100.0 mg/kg/injection, schedule: Q01DX001 (ip), vehicle: other) is 101 % of control.
Turning to `O=C(Cl)COc1cccc2ccccc12`, the T/C is 93 % of control under setting [1], 98 % of control under setting [2] and 101 % of control under setting [3].
Consider `O=C1C2C3CCC(O3)C2C(=O)N1C(=O)N1C(=O)C2C3CCC(O3)C2C1=O` (stereo unspecified), for which the T/C reads like this: (dose: 25.0 mg/kg/injection, schedule: Q04DX002 (ip), vehicle: Klucel (hydroxypropylcellulose) (HPC)) 101 % of control; (dose: 50.0 mg/kg/injection, schedule: Q04DX002 (ip), vehicle: Klucel (hydroxypropylcellulose) (HPC)) 94 % of control; under setting [4], 111 % of control and 89 % of control.
In the case of `Cc1cc(Cl)c(Cl)cc1NC(=O)c1cccc([N+](=O)[O-])c1`, the T/C was 93 % of control under setting [1], 96 % of control under setting [2] and 100 % of control under setting [3].
Take `Cc1cc(=O)[nH]c(N)n1`: the T/C was 114 % of control under setting [5]; 98 % of control under setting [6]; 101 % of control under setting [7]; 98 % of control under setting [8]; 93 % of control under setting [9]; 96 % of control under setting [10].
Consider `CCCC(C)Cc1ccc(C(C)=O)cc1` (stereo unspecified), for which the T/C is 101 % of control (dose: 50.0 mg/kg/injection, schedule: Q01DX009 (ip), vehicle: Klucel (hydroxypropylcellulose) (HPC)); 106 % of control under setting [1]; 104 % of control under setting [5]; 89 % of control under setting [2]; 105 % of control under setting [7]; 105 % of control under setting [9].
Consider `COC(=O)/C=C1/OC(=O)CC1(C)C`, for which the T/C is 106 % of control (dose: 100.0 mg/kg/injection, schedule: Q01DX001 (ip), vehicle: Klucel (hydroxypropylcellulose) (HPC)); 100 % of control (dose: 100.0 mg/kg/injection, schedule: Q01DX009 (ip), vehicle: saline sonified); 104 % of control (dose: 200.0 mg/kg/injection, schedule: Q01DX001 (ip), vehicle: Klucel (hydroxypropylcellulose) (HPC)); 96 % of control (dose: 200.0 mg/kg/injection, schedule: Q01DX009 (ip), vehicle: saline sonified); 107 % of control (dose: 400.0 mg/kg/injection, schedule: Q01DX001 (ip), vehicle: Klucel (hydroxypropylcellulose) (HPC)); 100 % of control (dose: 400.0 mg/kg/injection, schedule: Q01DX009 (ip), vehicle: saline sonified).
Consider `CN(N=O)C(=O)NCCCCCNC(=O)N(C)N=O`, for which the T/C (dose: 6.25 mg/kg/injection, schedule: Q01DX Z (ip), vehicle: carboxymethylcellulose (CMC)) was 102 % of control; the T/C (dose: 12.5 mg/kg/injection, schedule: Q01DX Z (ip), vehicle: carboxymethylcellulose (CMC)) was 100 % of control; the T/C (dose: 25.0 mg/kg/injection, schedule: Q01DX Z (ip), vehicle: carboxymethylcellulose (CMC)) is 106 % of control; the T/C (dose: 50.0 mg/kg/injection, schedule: Q01DX Z (ip), vehicle: carboxymethylcellulose (CMC)) is 108 % of control; the T/C (dose: 150.0 mg/kg/injection, schedule: Q01DX Z (ip), vehicle: carboxymethylcellulose (CMC)) was 191 % of control; the T/C (dose: 175.0 mg/kg/injection, schedule: Q01DX Z (ip), vehicle: carboxymethylcellulose (CMC)) was 166 % of control. The T/C is, setting by setting: (dose: 200.0 mg/kg/injection, schedule: Q01DX Z (ip), vehicle: carboxymethylcellulose (CMC)) 158 % of control; (dose: 210.0 mg/kg/injection, schedule: Q01DX001 (ip), vehicle: carboxymethylcellulose (CMC)) 117 % of control.
Take `NC(=O)c1ccc(C(F)(F)F)cc1O`: the T/C is 95 % of control under setting [1]; 100 % of control under setting [5]; 95 % of control under setting [2]; 97 % of control under setting [7]; 95 % of control under setting [3]; 95 % of control under setting [9].
`CCOC(=O)c1ccccc1NC(=O)Nc1cc([N+](=O)[O-])ccc1F`: the T/C reads like this: under setting [5], 88 % of control; under setting [7], 92 % of control; under setting [9], 86 % of control.
`CC(OCCO)C1CCC2C3CCC4=CC(=O)CCC4(C)C3C(O)C(C)C12C` (stereo unspecified): the T/C (dose: 50.0 mg/kg/injection, schedule: Q01DX001 (sc), vehicle: steriod suspending solution) is 102 % of control; the T/C (dose: 100.0 mg/kg/injection, schedule: Q01DX001 (sc), vehicle: steriod suspending solution) was 100 % of control; the T/C (dose: 200.0 mg/kg/injection, schedule: Q01DX001 (sc), vehicle: steriod suspending solution) is 110 % of control; the T/C (dose: 400.0 mg/kg/injection, schedule: Q01DX001 (sc), vehicle: steriod suspending solution) is 102 % of control.
Take `N#C/C(N)=C(\C#N)N=C1CCCCC1=O`: the T/C was 94 % of control under setting [4], 91 % of control under setting [11] and 94 % of control under setting [12].
For `O=C(Nc1ccc(NC(=O)Nc2cc(C(=O)Nc3ccc(C4=NCCN4)cc3)ccc2C(=O)Nc2ccc(C3=NCCN3)cc2)cc1)Nc1cc(C(=O)Nc2ccc(C3=NCCN3)cc2)ccc1C(=O)Nc1ccc(C2=NCCN2)cc1`, the T/C was 93 % of control (dose: 100.0 mg/kg/injection, schedule: Q01DX Z (oral), vehicle: saline); 120 % of control (dose: 120.0 mg/kg/injection, schedule: Q01DX Z (ip), vehicle: saline); 98 % of control (dose: 200.0 mg/kg/injection, schedule: Q01DX Z (oral), vehicle: saline); 101 % of control (dose: 400.0 mg/kg/injection, schedule: Q01DX Z (oral), vehicle: saline).
For the compound `C(CC1CCNCC1)CC1CCNCC1`, the T/C (dose: 10.0 mg/kg/injection, schedule: Q01DX Z (ip), vehicle: saline) was 96 % of control and the T/C (dose: 30.0 mg/kg/injection, schedule: Q01DX Z (ip), vehicle: saline) was 96 % of control.
Regarding `Oc1ccc(CNCc2ccccc2)c2cccnc12`, the T/C (dose: 75.0 mg/kg/injection, schedule: Q01DX001 (ip), vehicle: saline) was 115 % of control.
As for `CC(C(=O)c1ccc(Br)cc1)C(Br)c1ccccc1` (stereo unspecified), the T/C is 95 % of control (dose: 100.0 mg/kg/injection, schedule: Q01DX009 (ip), vehicle: saline with Tween-80); 96 % of control under setting [6]; 95 % of control (dose: 200.0 mg/kg/injection, schedule: Q01DX009 (ip), vehicle: saline with Tween-80); 91 % of control under setting [8]; 95 % of control (dose: 400.0 mg/kg/injection, schedule: Q01DX009 (ip), vehicle: saline with Tween-80); 98 % of control under setting [10].
Take `C[n+]1ccccc1/C=C/c1ccc2c(c1)OCO2`: the T/C runs as follows: (dose: 12.5 mg/kg/injection, schedule: Q01DX009 (ip), vehicle: Klucel (hydroxypropylcellulose) (HPC)) 94 % of control; (dose: 12.5 mg/kg/injection, schedule: Q04DX003 (ip), vehicle: Klucel (hydroxypropylcellulose) (HPC)) 95 % of control; (dose: 25.0 mg/kg/injection, schedule: Q01DX009 (ip), vehicle: Klucel (hydroxypropylcellulose) (HPC)) 92 % of control; (dose: 25.0 mg/kg/injection, schedule: Q04DX003 (ip), vehicle: Klucel (hydroxypropylcellulose) (HPC)) 94 % of control.
In the case of `O=C(OCC(OC(=O)c1ccccc1)C(OC(=O)c1ccccc1)C(COC(=O)c1ccccc1)OC(=O)c1ccccc1)c1ccccc1` (stereo unspecified), the T/C under setting [4] was 93 % of control, the T/C under setting [11] was 105 % of control and the T/C under setting [12] was 93 % of control.
With `CN(C)CC(=O)O`, the T/C reads like this: (dose: 100.0 mg/kg/injection, schedule: Q01DX009 (ip), vehicle: saline) 94 % of control; (dose: 200.0 mg/kg/injection, schedule: Q01DX009 (ip), vehicle: saline) 94 % of control; (dose: 400.0 mg/kg/injection, schedule: Q01DX009 (ip), vehicle: saline) 94 % of control.
